Experimental findings from patent US20260226089A1, “METHOD FOR CONTROLLING IMPURITIES IN L-ARABINOSE AND USE THEREOF” (THOMSON BIOTECH (XIAMEN) PTE. LTD., priority 2023, published 2026) are described below.

The test system of test [1] is SPF-grade rats. The test is described as follows: Rat bowel preparation experiment (bowel cleansing effect). In kind it is in vivo. The source says:
Experimental materials: L-arabinose, selected from the L-arabinose crystallization sample with batch No. 1221 in the example, prepared into a 0.4 g/mL solution with purified water; PEG (Shutaiqing), prepared into a 0.521 g/mL PEG solution with purified water; SPF-grade rats (Zhejiang Vital River Laboratory Animal Technology Co., Ltd.). • 5.1. Experimental animals and feeding thereof: SPF (specific pathogen free)-grade rats (200±10 g), 6 weeks old; normal feed was D12450-B feed: 67.35 wt % carbohydrates, 19.2 wt % crude protein, and 4.3 wt % fat. The temperature of the room was kept at 24° C. to 26° C. with humidity at 40% to 60%. • 5.2. Experimental method and procedures:
The SPF-grade rats were randomly divided into a blank control group, a positive control group, and a treatment group, 10 animals per group, half being male and half female. Administration method: Animals in each group were fasted (water was accessible) starting at 22:00 the night before experiment, were each given ½ the calculated amount of drug by intragastrical administration at 7:00 and 9:00 on the day of experiment, were each given 2.0 mL of purified water at 12:00 and 13:00, and were dissected 3.5 h after the last administration.

In test [2] the test system is constipation model rats. Kind of test: Therapeutic effect on constipation model rats (modeling with compound diphenoxylate). In kind it is in vivo, rat. As to conditions: n = 8; for Time for first dark stools min: first administration with 5% activated carbon; for Time for first dark stools min / Small intestine propulsion rate %: x ± sd; for Small intestine propulsion rate %: gavage once daily; for Water content of stools %: stools collected on day 7, x ± sd. The source says: • Modeling procedure: modeling with compound diphenoxylate. • Experimental drugs and reagents: activated carbon (5%); a 0.4 g/mL aqueous solution prepared from an arabinose drug. • Positive control: PEG (Shutaiqing). SPF-grade rats (Zhejiang Vital River Laboratory Animal Technology Co., Ltd.).
Except for the normal group, the successfully modeled rats were randomly divided into 5 groups, including a model group, a low dose group, a medium dose group, a high dose group, and a positive control group, 8 animals per group. Each rat was housed individually in separate cages, and operations were conducted fixedly at 10:00-12:00 every day. The normal group and the model group were gavaged with 0.2 mL of purified water. The positive control group was gavaged with 0.133 mL of a mosapride solution, and the low dose group, the medium dose group, and the high dose group were gavaged with 0.01 mL, 0.02 mL, and 0.04 mL of the test drug, respectively, with the volume adjusted to 0.2 mL using purified water. The rats had free access to food and water. The administration was performed for 7 consecutive days (times).
For the first administration, the drug with 5% activated carbon (based on 0.2 g×5%) added was intragastrically administered to the treatment group, and 0.2 mL of purified water with activated carbon added was intragastrically administered to the normal group and the model group. The time for the first dark stools was recorded.
The rats were intragastrically administered once daily. On day 7 after the continuous administration, the stools were collected using a sterile centrifuge tube and stored at −100° C. The collected stools were dried at 105° C. to a constant weight, and the water content of the stools was calculated according to the formula: water content of stools=(1−mass after drying/mass before drying)×100%.
The rats were intragastrically administered once daily for 14 days and then fasted for 12 h. 1 h after the last administration, each group of animals was gavaged with 0.15 mL of 5% activated carbon, and 30 min later, the rats were anesthetized with an intraperitoneal injection of 10% chloral hydrate. After anesthesia was completed, the abdominal operation was immediately performed. The intestinal canal from pylorus to ileocecal junction was cut off and placed on a glass plate. The length of the intestinal tract traversed by the ink and the total length of the intestinal tract were measured. The intestinal propulsion rate was the ratio of the two. The total length from pylorus to ileocecal junction and the distance from pylorus to the front of the carbon ink were measured, and the carbon ink propulsion percentage was calculated. Intestinal propulsion rate=distance from front of carbon ink to pylorus/full length of small intestine×100%.

With `O=C[C@H](O)[C@@H](O)[C@@H](O)CO` [L-arabinose, L-Arabinose], the “Dosage relative to that administered to the positive control group to achieve the same effect” value in test [1] (9 g/kg L-arabinose vs 21.9 g/kg PEG) was 41%. Moreover, the “Stools observed before the dissection” value in test [1] (L-arabinose batch No. 1221, 9 g/kg (22.5 mL/kg) intragastric in 2 doses, fasted rats) was “Watery and loose stools”. In test [1] (L-arabinose batch No. 1221, 9 g/kg intragastric in 2 doses, dissected 3.5 h after last administration), the “Residue in the rectum and colon after the dissection” value was “no residue was left in the rectum and colon”. In test [2] (High dose 0.80 g kg/d), the “Time for first dark stools min” value was 63 ± 5.7 min, the “Small intestine propulsion rate %” value was 83% ± 2.8 and the “Water content of stools %” value is reported as 61% ± 2.4. Also, in test [2] (Low dose 0.20 g kg/d), the “Time for first dark stools min” value stood at 76 ± 8.5 min, the “Small intestine propulsion rate %” value is 75% ± 3.1 and the “Water content of stools %” value was 54% ± 1.8. In addition, in test [2] (Medium dose 0.40 g kg/d), the “Time for first dark stools min” value is 64 ± 6.2 min, the “Small intestine propulsion rate %” value is 80% ± 2.7 and the “Water content of stools %” value is 59% ± 2.7.

Take `CCOc1cc(N)c(Cl)cc1C(=O)NCC1CN(Cc2ccc(F)cc2)CCO1` (stereo not drawn) [Positive control, reference compound]: in test [2] (Positive control 2.0 mg kg/d), the “Time for first dark stools min” value was 67 ± 8.8 min, the “Small intestine propulsion rate %” value is listed as 82% ± 4.4 and the “Water content of stools %” value is recorded as 57% ± 0.9.
